Laboratory results as given in patent US20240024273A1, “TOPICAL ADMINISTRATION OF 2-(DIETHYLAMINO)ETHYL 2-(4-ISOBUTYLPHENYL)PROPRIONATE FOR TREATMENT OF DISEASES” (TECHFIELDS PHARMA CO., LTD., priority 2020, published 2024).

Test system: Mild to Moderate Osteoarthritis of the Knee
Assay: Phase 2 study: WOMAC (VAS) pain subscale score, target knee
Format: in vivo, human
Details: for Change of WOMAC pain score from baseline (±SEM) / Percentage of improvement from baseline, WOMAC pain score: all patients taken as active
From the text: This is a Phase 2, multicenter, randomized, double blind (within dose), placebo controlled, parallel group, proof of concept, and dose range finding study to evaluate the efficacy, safety, and PK of 2-(diethylamino)ethyl 2-(4-isobutylphenyl)propionate hydrochloride spray in adult subjects with clinically symptomatic mild to moderate OA of the knee. For subjects with bilateral knee pain, both knees will be treated, but the most symptomatic knee (i.e., the most painful knee as measured by the Western Ontario and McMaster University Osteoarthritis Index [WOMAC® 3.1] pain subscale score at Screening) will be designated as the target knee for efficacy analyses. For subjects with unilateral knee pain, only the symptomatic (target) knee will be treated.
After a Screening Period of up to 3 weeks and radiographic evaluation of the target knee joint space, a subject will be randomly assigned to 1 of 3 treatment groups in a 1:1:1 ratio with a 2:1 ratio of active:placebo within each treatment group (ie, 2 subjects to active treatment and 1 subject to placebo): • Group A: 8.75 mg 2-(diethylamino)ethyl 2-(4-isobutylphenyl)propionate/knee (2 sprays/knee, one spray to the medial surface and one spray to the lateral surface of the knee), twice daily (BID, approximately every 12 hours; n=50) or placebo (2 sprays/knee), BID (approximately every 12 hours; n=25) for a total of 4 sprays per knee per day; • Group B: 17.5 mg 2-(diethylamino)ethyl 2-(4-isobutylphenyl)propionate/knee (4 sprays/knee, one spray to the medial surface and one spray to the lateral surface of the knee, and one spray to front and one spray to the back of the knee), BID (approximately every 12 hours; n=50) or placebo (4 sprays/knee), BID (approximately every 12 hours; n=25) for a total of 8 sprays per knee per day; • Group C: 35 mg 2-(diethylamino)ethyl 2-(4-isobutylphenyl)propionate/knee (8 sprays/knee, each spray is to be applied to a different non-overlapping area around the knee, and the areas are to be uniformly distributed around the knee), BID (approximately every 12 hours; n=50) or placebo (8 sprays/knee), BID (approximately every 12 hours; n=25) for a total of 16 sprays per knee per day.
The VAS version of the WOMAC will be used for the Primary and Secondary Efficacy Endpoints. Efficacy endpoints will be assessed at Screening and Baseline (Day 1) and at the Week 2, Week 4, Week 8, and Week 12/EOS visits.
The Primary Efficacy Endpoint is the change from Baseline in the WOMAC (VAS) pain subscale score for the target knee at […] of treatment.
3.9.2. Secondary Efficacy Endpoints: • 1. Change from Baseline in the WOMAC (VAS) pain subscale score for the target knee at 2, 4, and 8 weeks of treatment; • 2. Change from Baseline in the WOMAC (VAS) stiffness subscale scores for the target knee and WOMAC (VAS) functional ability subscale scores at 2, 4, 8, and 12 weeks of treatment; • 3. Change from Baseline in the overall WOMAC (VAS) score at 2, 4, 8, and 12 weeks of treatment.
The Primary Efficacy Endpoint is change from Baseline in the WOMAC (VAS) pain subscale score for the target knee at 4 weeks of treatment, and will be analyzed using an analysis of covariance (ANCOVA). Treatment will be included as a fixed class effect and WOMAC Baseline pain subscale score as covariates. The primary comparisons of interest will be the difference between active Group A (8.75 mg 2-(diethylamino)ethyl 2-(4-isobutylphenyl)propionate/knee) and combined placebo, active Group B (17.5 mg 2-(diethylamino)ethyl 2-(4-isobutylphenyl)propionate/knee) and combined placebo, and active Group C (35 mg 2-(diethylamino)ethyl 2-(4-isobutylphenyl)propionate/knee) and combined placebo. […]

[1] = 8.75 mg/knee (BID), Follow up (week 13, day 91)
[2] = 8.75 mg/knee (BID), Week 2 (day 14)
[3] = 8.75 mg/knee (BID), Week 4 (day 28)
[4] = 8.75 mg/knee (BID), Week 8 (day 56)
[5] = 8.75 mg/knee (BID), Week 12 (day 84)
[6] = 17.5 mg/knee (BID), Follow up (week 13, day 91)
[7] = 17.5 mg/knee (BID), Week 2 (day 14)
[8] = 17.5 mg/knee (BID), Week 4 (day 28)
[9] = 17.5 mg/knee (BID), Week 8 (day 56)
[10] = 17.5 mg/knee (BID), Week 12 (day 84)
[11] = 35 mg/knee (BID), Follow up (week 13, day 91)
[12] = 35 mg/knee (BID), Week 2 (day 14)
[13] = 35 mg/knee (BID), Week 4 (day 28)
[14] = 35 mg/knee (BID), Week 8 (day 56)
[15] = 35 mg/knee (BID), Week 12 (day 84)

CCN(CC)CCOC(=O)C(C)c1ccc(CC(C)C)cc1 (stereo not drawn) [2-(diethylamino)ethyl 2-(4-isobutylphenyl)propionate]
Change of WOMAC pain score from baseline (±SEM), adjusted by […] of the testing drug amount [1]: −34.5(±5.6) mm | Percentage of improvement from baseline, WOMAC pain score, adjusted by […] of the testing drug amount [1]: −57.6% | Change of WOMAC pain score from baseline (±SEM) [1]: −20.1(±3.25) mm | Percentage of improvement from baseline, WOMAC pain score [1]: −33.6% | Change of WOMAC pain score from baseline (±SEM), adjusted by […] of the testing drug amount [2]: −19.2(±4.1) mm | Percentage of improvement from baseline, WOMAC pain score, adjusted by […] of the testing drug amount [2]: −32.1% | Change of WOMAC pain score from baseline (±SEM) [2]: −11.2(±2.39) mm | Percentage of improvement from baseline, WOMAC pain score [2]: −18.7% | Change of WOMAC pain score from baseline (±SEM), adjusted by […] of the testing drug amount [3]: −29.2(±4.8) mm | Percentage of improvement from baseline, WOMAC pain score, adjusted by […] of the testing drug amount [3]: −48.7% | Change of WOMAC pain score from baseline (±SEM) [3]: −17.0(±2.79) mm | Percentage of improvement from baseline, WOMAC pain score [3]: −28.4% | Change of WOMAC pain score from baseline (±SEM), adjusted by […] of the testing drug amount [4]: −36.7(±4.8) mm | Percentage of improvement from baseline, WOMAC pain score, adjusted by […] of the testing drug amount [4]: −61.4% | Change of WOMAC pain score from baseline (±SEM) [4]: −21.4(±2.81) mm | Percentage of improvement from baseline, WOMAC pain score [4]: −35.8% | Change of WOMAC pain score from baseline (±SEM), adjusted by […] of the testing drug amount [5]: −37.0(±5.4) mm | Percentage of improvement from baseline, WOMAC pain score, adjusted by […] of the testing drug amount [5]: −61.9% | Change of WOMAC pain score from baseline (±SEM) [5]: −21.6(±3.13) mm | Percentage of improvement from baseline, WOMAC pain score [5]: −36.1% | Change of WOMAC pain score from baseline (±SEM), adjusted by […] of the testing drug amount [6]: −37.9(±5.2) mm | Percentage of improvement from baseline, WOMAC pain score, adjusted by […] of the testing drug amount [6]: −62.1% | Change of WOMAC pain score from baseline (±SEM) [6]: −22.1(±3.01) mm | Percentage of improvement from baseline, WOMAC pain score [6]: −36.2% | Change of WOMAC pain score from baseline (±SEM), adjusted by […] of the testing drug amount [7]: −25.7(±3.7) mm | Percentage of improvement from baseline, WOMAC pain score, adjusted by […] of the testing drug amount [7]: −42.2% | Change of WOMAC pain score from baseline (±SEM) [7]: −15.0(±2.18) mm | Percentage of improvement from baseline, WOMAC pain score [7]: −24.6% | Change of WOMAC pain score from baseline (±SEM), adjusted by […] of the testing drug amount [8]: −35.2(±4.8) mm | Percentage of improvement from baseline, WOMAC pain score, adjusted by […] of the testing drug amount [8]: −57.6% | Change of WOMAC pain score from baseline (±SEM) [8]: −20.5(±2.79) mm | Percentage of improvement from baseline, WOMAC pain score [8]: −33.6% | Change of WOMAC pain score from baseline (±SEM), adjusted by […] of the testing drug amount [9]: −43.1(±4.9) mm | Percentage of improvement from baseline, WOMAC pain score, adjusted by […] of the testing drug amount [9]: −70.5% | Change of WOMAC pain score from baseline (±SEM) [9]: −25.1(±2.88) mm | Percentage of improvement from baseline, WOMAC pain score [9]: −41.1% | Change of WOMAC pain score from baseline (±SEM), adjusted by […] of the testing drug amount [10]: −45.5(±5.0) mm | Percentage of improvement from baseline, WOMAC pain score, adjusted by […] of the testing drug amount [10]: −74.4% | Change of WOMAC pain score from baseline (±SEM) [10]: −26.5(±2.94) mm | Percentage of improvement from baseline, WOMAC pain score [10]: −43.4% | Change of WOMAC pain score from baseline (±SEM), adjusted by […] of the testing drug amount [11]: −41.2(±5.3) mm | Percentage of improvement from baseline, WOMAC pain score, adjusted by […] of the testing drug amount [11]: −69.5% | Change of WOMAC pain score from baseline (±SEM) [11]: −24.0(±3.09) mm | Percentage of improvement from baseline, WOMAC pain score [11]: −40.5% | Change of WOMAC pain score from baseline (±SEM), adjusted by […] of the testing drug amount [12]: −21.6(±4.0) mm | Percentage of improvement from baseline, WOMAC pain score, adjusted by […] of the testing drug amount [12]: −36.5% | Change of WOMAC pain score from baseline (±SEM) [12]: −12.6(±2.33) mm | Percentage of improvement from baseline, WOMAC pain score [12]: −21.3% | Change of WOMAC pain score from baseline (±SEM), adjusted by […] of the testing drug amount [13]: −30.4(±4.4) mm | Percentage of improvement from baseline, WOMAC pain score, adjusted by […] of the testing drug amount [13]: −51.2% | Change of WOMAC pain score from baseline (±SEM) [13]: −17.7(±2.54) mm | Percentage of improvement from baseline, WOMAC pain score [13]: −29.9% | Change of WOMAC pain score from baseline (±SEM), adjusted by […] of the testing drug amount [14]: −38.1(±5.1) mm | Percentage of improvement from baseline, WOMAC pain score, adjusted by […] of the testing drug amount [14]: −64.3% | Change of WOMAC pain score from baseline (±SEM) [14]: −22.2(±2.97) mm | Percentage of improvement from baseline, WOMAC pain score [14]: −37.5% | Change of WOMAC pain score from baseline (±SEM), adjusted by […] of the testing drug amount [15]: −43.6(±5.2) mm | Percentage of improvement from baseline, WOMAC pain score, adjusted by […] of the testing drug amount [15]: −73.6% | Change of WOMAC pain score from baseline (±SEM) [15]: −25.4(±3.04) mm | Percentage of improvement from baseline, WOMAC pain score [15]: −42.9%
